# Key:
# Assay type in all cases: biochemical
# Aβ 1-42 fibrils [1] = biological target: T1, Aβ 1-42 fibrils (Homo sapiens, UniProt P05067); test: Thioflavin T fluorometry, disruption of pre-formed Aβ 1-42 fibrils (Example 11); conditions: 30 μg pre-fibrillized Aβ 1-42, 37° C., 3 days
# T1 construct: purchased Bachem Inc
# Excerpt: In one study, Thioflavin T fluorometry was used to determine the effects of the compounds, and of EDTA (as a negative control). In this assay Thioflavin T binds specifically to fibrillar amyloid, and this binding produces a fluorescence enhancement at 485 nm that is directly proportional to the amount of amyloid fibrils formed. The higher the fluorescence, the greater the amount of amyloid fibrils formed (Naki et al., Lab. Invest. 65:104-110, 1991; Levine III, Protein Sci. 2:404-410, 1993; Amyloid: Int. J. Exp. Clin. Invest. 2:1-6, 1995).
# (§1) Following 3-days of co-incubation, 50 μl of each incubation mixture was transferred into a 96-well microtiter plate containing 150 μl of distilled water and 50 μl of a Thioflavin T solution (i.e. 500 mM Thioflavin T in 250 mM phosphate buffer, pH 6.8). The fluorescence was read at 485 nm (444 nm excitation wavelength) using an ELISA plate fluorometer after subtraction with buffer alone or compound alone, as blank.
# Aβ 1-42 fibrils [2] = biological target: T1, Aβ 1-42 fibrils; test: Congo red binding assay, Aβ 1-42 fibrils (Example 11); conditions: 3-day incubation
# Procedure: (§2) In the Congo red binding assay, the ability of a test compound to alter amyloid (in this case, Aβ) binding to Congo red is quantified. In this assay, Aβ 1-42 and test compounds were incubated for 3 days and then vacuum filtered through a 0.2 μm filter. The amount of Aβ 1-42 retained in the filter was then quantitated following staining of the filter with Congo red. After appropriate washing of the filter, any lowering of the Congo red color on the filter in the presence of the test compound (compared to the Congo red staining of the amyloid protein in the absence of the test compound) was indicative of the test compound's ability to diminish/alter the amount of aggregated and congophilic Aβ.
# In one study, the ability of Aβ fibrils to bind Congo red in the absence or presence of increasing amounts of the compounds or EDTA (at Aβ:test compound weight ratios of 1:1, 1:0.1, 1:0.01 or 1:0.001) was determined.
# α-synuclein fibrils [3] = biological target: T2, α-synuclein fibrils (Homo sapiens, UniProt P37840); test: Thioflavin T fluorometry, disruption of pre-formed α-synuclein fibrils (Example 12); conditions: 3 days; for disruption/disassembly of pre-formed α-synuclein fibrils, in words: Thioflavin T fluorometry, all concentrations tested; for % Inhibition α-synuclein (result ± S.D.), Thioflavin T fluorometry: 30 μg pre-fibrillized α-synuclein, 37° C.
# T2 construct: purchased rPeptide
# Procedure: In this assay, Thioflavin T binds specifically to α-synuclein fibrils, and this binding produces a fluorescence enhancement at 485 nm that is directly proportional to the amount of α-synuclein fibrils present. The higher the fluorescence, the greater the amount of α-synuclein fibrils present (Naki et al, Lab. Invest. 65:104-110, 1991; Levine III, Protein Sci. 2:404-410, 1993; Amyloid: Int. J. Exp. Clin. Invest. 2:1-6, 1995).
# as §1, with “In this study, 30 μg of pre-fibrillized α-synuclein (rPeptide) was incubated at 37° C. for 3 days either alone or in the presence of compounds DC-0051-F1, F2, F3, F4, F5, F6 or EDTA (at α-synuclein:test compound weight ratios of 1:1, 1:0.1, 1:0.01 or 1:0.001). Following” for “Following”
# α-synuclein fibrils [4] = biological target: T2, α-synuclein fibrils; test: Congo red binding assay, α-synuclein fibrils (Example 12); conditions: 3-day incubation
# Procedure: as §2, with “of a given test compound” for “of a test compound”, “this case, α-synuclein) binding to” for “this case, Aβ) binding to”, “this assay, α-synuclein and test” for “this assay, Aβ 1-42 and test”, “amount of α-synuclein retained in” for “amount of Aβ 1-42 retained in”, “and congophilic α-synuclein.” for “and congophilic Aβ.”
# In one study, the ability of α-synuclein fibrils to bind Congo red in the absence or presence of increasing amounts of compounds DC-0051-F1, F2, F3, F4, F5, F6 and EDTA (at α-synuclein:test compound weight ratios of 1:1, 1:0.1, 1:0.01 or 1:0.001) was determined.
# [5] = Aβ:test compound wt/wt ratio 1:0.001
# [6] = Aβ:test compound wt/wt ratio 1:0.01
# [7] = Aβ:test compound wt/wt ratio 1:0.1
# [8] = Aβ:test compound wt/wt ratio 1:1
# [9] = α-synuclein:test compound wt/wt ratio 1:0.001
# [10] = α-synuclein:test compound wt/wt ratio 1:0.01
# [11] = α-synuclein:test compound wt/wt ratio 1:0.1
# [12] = α-synuclein:test compound wt/wt ratio 1:1
# T1 sequence (P05067 672-713): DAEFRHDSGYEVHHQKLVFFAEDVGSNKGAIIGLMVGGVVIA
Structure (SMILES),"% Inhibition Aβ (result ± S.D.), Thioflavin T fluorometry (Aβ 1-42 fibrils [1]; [5]) [%]","% Inhibition Aβ (result ± S.D.), Thioflavin T fluorometry (Aβ 1-42 fibrils [1]; [6]) [%]","% Inhibition Aβ (result ± S.D.), Thioflavin T fluorometry (Aβ 1-42 fibrils [1]; [7]) [%]","% Inhibition Aβ (result ± S.D.), Thioflavin T fluorometry (Aβ 1-42 fibrils [1]; [8]) [%]","% Inhibition Aβ (result ± S.D.), Congo red binding (Aβ 1-42 fibrils [2]; [5]) [%]","% Inhibition Aβ (result ± S.D.), Congo red binding (Aβ 1-42 fibrils [2]; [6]) [%]","% Inhibition Aβ (result ± S.D.), Congo red binding (Aβ 1-42 fibrils [2]; [7]) [%]","% Inhibition Aβ (result ± S.D.), Congo red binding (Aβ 1-42 fibrils [2]; [8]) [%]","disruption/disassembly of pre-formed α-synuclein fibrils, in words (α-synuclein fibrils [3])","% Inhibition α-synuclein (result ± S.D.), Thioflavin T fluorometry (α-synuclein fibrils [3]; [9]) [%]","% Inhibition α-synuclein (result ± S.D.), Thioflavin T fluorometry (α-synuclein fibrils [3]; [10]) [%]","% Inhibition α-synuclein (result ± S.D.), Thioflavin T fluorometry (α-synuclein fibrils [3]; [11]) [%]","% Inhibition α-synuclein (result ± S.D.), Thioflavin T fluorometry (α-synuclein fibrils [3]; [12]) [%]","% Inhibition α-synuclein (result ± S.D.), Congo red binding (α-synuclein fibrils [4]; [9]) [%]","% Inhibition α-synuclein (result ± S.D.), Congo red binding (α-synuclein fibrils [4]; [10]) [%]","% Inhibition α-synuclein (result ± S.D.), Congo red binding (α-synuclein fibrils [4]; [11]) [%]","% Inhibition α-synuclein (result ± S.D.), Congo red binding (α-synuclein fibrils [4]; [12]) [%]"
"O=C(Nc1ccc(O)c(O)c1)c1ccc(O)c(O)c1F [DC-0051-F1, 3,4-Dihydroxy-2-fluoro-N-(3,4-dihydroxyphenyl)benzamide]",15.6 ± 2.01,37.1 ± 1.44,91.3 ± 1.39,98.7 ± 0.38,3.7 ± 4.36,2.2 ± 7.70,27.5±2.39,80.1±2.61,dose-dependent disruption/disassembly,13.7 ± 6.06,58.4 ± 5.06,90.4 ± 2.07,100.0 ± 3.14,0.0 ± 3.42,3.8 ± 5.82,32.9±2.97,69.8±2.67
"O=C(Nc1ccc(O)c(O)c1)c1cc(O)c(O)cc1F [DC-0051-F2, N-(3,4-dihydroxyphenyl)-2-fluoro-4,5-dihydroxy benzamide]",17.1 ± 4.32,53.7±6.29,95.9±0.88,99.6 ± 0.55,4.9 ± 7.88,0.5 ± 5.24,49.9±9.13,80.1±3.79,dose-dependent disruption/disassembly,15.9 ± 7.20,61.1±1.37,94.7±2.57,100.0 ± 1.49,0.0 ± 6.71,3.7 ± 2.83,36.5±53.4,67.8±3.52
"O=C(Nc1ccc(O)c(O)c1)c1cc(O)c(O)c(F)c1 [DC-0051-F3, 4,5-Dihydroxy-3-fluoro-N-(3,4-dihydroxyphenyl)benzamide]",15.1 ± 3.81,34.6 ± 2.21,92.3 ± 0.19,99.0 ± 0.77,0.0 ± 2.64,0.0 ± 3.25,23.3 ± 5.01,74.5 ± 2.69,dose-dependent disruption/disassembly,13.8 ± 5.12,59.6±6.39,92.5±2.35,96.8 ± 2.82,0.0 ± 3.93,2.6 ± 4.90,23.3 ± 2.24,55.9 ± 2.65
"O=C(Nc1cc(O)c(O)c(F)c1)c1ccc(O)c(O)c1 [DC-0051-F4, N-(3-fluoro-4,5-dihydroxyphenyl)-3,4-dihydroxybenzamide]",16.0 ± 6.64,33.4 ± 2.09,79.8 ± 0.77,99.7 ± 0.58,4.3 ± 11.81,8.8 ± 5.07,10.9 ± 5.05,71.0 ± 2.39,dose-dependent disruption/disassembly,6.1 ± 9.44,40.6 ± 1.49,94.3 ± 1.22,100.0 ± 2.84,6.1 ± 8.92,0.0 ± 3.44,18.0 ± 0.58,64.8 ± 5.08
"O=C(Nc1cc(O)c(O)cc1F)c1ccc(O)c(O)c1 [DC-0051-F5, N-(2-fluoro-4,5-dihydroxyphenyl)-3,4-dihydroxybenzamide]",19.5 ± 1.49,43.9±2.01,91.8±0.22,99.8 ± 0.40,0.0 ± 2.50,9.8 ± 2.54,25.7 ± 5.69,69.9 ± 2.06,dose-dependent disruption/disassembly,5.9 ± 10.41,59.0 ± 1.18,94.7 ± 1.70,98.9 ± 0.65,0.0 ± 1.01,5.0 ± 5.47,32.7 ± 3.96,69.4 ± 0.13
